Assays:
αvβ3 = details: cited from earlier work
αvβ5 = details: cited from earlier work
SW480 ITGB6 high cells = assay: Long-term cytotoxicity, SW480 ITGB6 high; assay type: cell-based, human; details: SW480 versus SW480 ITGB6 high, Figure S7

Substance: c(RGDfK)
- αvβ3 integrin targeting (in words) (αvβ3): target αvβ3 and αvβ5 integrins
- αvβ5 integrin targeting (in words) (αvβ5): target αvβ3 and αvβ5 integrins

Substance: cilengitide (RGDFV; chains of the INN, looked up)
- effect of ITGB6 transfection on sensitivity (SW480 ITGB6 high cells): ITGB6 transfection did not impact on the sensitivity
